Experimental data taken from patent US9642835B2, “Modulators of GTPase and use in relevant treatment” (STC.UNM, priority 2010, dated 2017).

How the values were obtained:
[1] = tested on: Cdc42, Rab2, Rab7, activated Rac1Q61L, Rac1, and H-Ras; assay: Multiplexed primary screen, fluorescent GTP binding; conditions: 10 μM compound
Method: Multiplex screening was performed by measuring GTP-binding activities of six GTPases (Cdc42, Rab2, Rab7, activated Rac1Q61L, Rac1, and H-Ras) simultaneously using special glutathione (GSH) bead sets having varied fluorescence intensities at a fixed wavelength^38. Individual GST-GTPase chimeras were tested against approximately 200,000 small molecules from the Molecular Libraries Small Molecule Repository (MLSMR). Results of fluorescent GTP-binding from the entire primary screen are summarized in the open access Pubchem database as required for projects conducted under the Roadmap Initiative (AID 757-761, 764). […] In total 1877 compounds/194,635 were identified as activators or inhibitors in the primary screen. On the order of 100-500 compounds were found active per GTPase target, enabling an unprecedented, comprehensive evaluation of small molecules active against various Ras-related GTPase family members. Here we report one compound active specifically on Cdc42 and structure activity relationships determined through chemical synthesis.
Multiplex analysis of small GTPases, were performed as we have described previously {Surviladze, 2009}. […] Flow cytometric light scatter and fluorescence emission at 530+/−20 nm (FL1) and 665+/−10 nm (FL8) were collected on a Cyan ADP flow cytometer (Beckman Coulter, Fullerton, Calif.). The resulting time-dependent data (one file per plate) were analyzed using IDLQuery software to determine the compound activity in each well. […] Gating based on FL8 emission distinguishes the beads coated with different proteins, and the median fluorescence per bead population was calculated. […]
For detection of GTP binding to small G-proteins we used bead-based multiplex flow cytometry assay {Surviladze, 2009}. […] Six individual GST-GTPases representative of Rho, Ras and Rab branches of the Ras-related GTPase family (Cdc42 wt, Rac1 wt, Rac1Q61L, Rab2 wt, Rab7 wt, and H-Ras wt) were first bound to GSH-beads of a particular fluorescence intensity. […]

[2] = tested on: Dbs (guanine nucleotide exchange factor) on Cdc42 wt; assay: Effect on Dbs activity, [3H]GDP/GTP exchange; type: biochemical; conditions: 10 μM
Method: GSH-beads were coupled with Cdc42 wt, washed and incubated with 10 mM EDTA-NP-HPS for 20 min at 30° C. Nucleotide depleted enzyme washed with NP-HPS, and incubated with 2μCi [^3H]GDP in the presence of 1 mM EDTA (in NP-HPS buffer) for 20 min at 30° C. To prevent the dissociation of tritiated guanine nucleotide from the Cdc42, MgCl2 was added to a final concentration 20 mM. [^3H]GDP-Cdc42-beads washed and re-suspended in GDP exchange buffer (NP-HPS with 1 mM EDTA, 5 mM MgCl2, and 1 mM DTT) and 100 μl aliquots loaded in tubes and incubated with vehicle or 10 μM MLS000693334 for 15 min. Effect of the guanine nucleotide exchange factor domain, Dbs on GDP/GTP exchange in the presence and absence of inhibitor was measured after addition of 200 nM His-DBS (DH/PH domain). The GDP/GTP exchange reaction was initiated by addition of 250 nM GTP and incubation samples for 2 min 30 C. The reaction was stopped by transferring samples on ice. Cdc42-beads collected and washed twice with ice cold GDP exchange buffer and measured radioactivity, by loading samples in scintillation vial.

## COc1ccc(C2CC(c3ccccc3)=NN2c2ccc(S(N)(=O)=O)cc2)cc1 (centres unmarked) [MLS000693334, 4-[3-(4-methoxyphenyl)-5-phenyl-3,4-dihydropyrazol-2-yl]benzenesulfonamide]
[1]
  Outcome of primary screening: specific inhibitors
[2]
  Dbs activity (GDP/GTP exchange): did not changes Dbs activity
